Values quoted from earlier work in patent US20050019354A1, “Topical benfotiamine treatments” (priority 2003, published 2005).

Legend:
transketolase = target: T1, transketolase (Homo sapiens, UniProt P29401)
T1 sequence (P29401 1-623): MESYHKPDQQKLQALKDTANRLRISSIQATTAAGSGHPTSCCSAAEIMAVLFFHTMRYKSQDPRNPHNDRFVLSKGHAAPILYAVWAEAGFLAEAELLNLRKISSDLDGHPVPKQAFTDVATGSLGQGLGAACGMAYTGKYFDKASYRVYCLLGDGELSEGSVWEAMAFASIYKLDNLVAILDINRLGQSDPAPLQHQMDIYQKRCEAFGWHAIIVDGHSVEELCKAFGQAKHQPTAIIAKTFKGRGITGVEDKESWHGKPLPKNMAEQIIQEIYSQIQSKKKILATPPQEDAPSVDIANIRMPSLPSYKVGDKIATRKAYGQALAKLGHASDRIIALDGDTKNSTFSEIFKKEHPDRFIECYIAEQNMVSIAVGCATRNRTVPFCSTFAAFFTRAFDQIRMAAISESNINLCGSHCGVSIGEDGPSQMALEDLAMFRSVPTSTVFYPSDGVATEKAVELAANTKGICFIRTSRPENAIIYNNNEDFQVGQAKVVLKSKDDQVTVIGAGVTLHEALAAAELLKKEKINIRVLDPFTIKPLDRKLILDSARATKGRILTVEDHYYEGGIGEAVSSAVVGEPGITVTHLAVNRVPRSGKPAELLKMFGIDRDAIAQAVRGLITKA

[1] = tested on: retinopathy in diabetic rats

SMILES: C/C(=C(\CCOP(=O)(O)O)SC(=O)c1ccccc1)N(C=O)Cc1cnc(C)nc1N [Benfotiamine, S-Benzoylthiamine-O-Monophosphate]
- increase of transketolase activity (transketolase): 300%
- effect on retinopathy [1]: prevented retinopathy
